# Test results published in paper PMC12040169 (PLOS Biology, 2025).
# Test: in vitro
# Details: human, hela cells, % viability
row,Compound,"viability at 28.5 h, 10 µM"
1,CC(=O)c1ccc(-c2nc(-c3ccc(Cl)cc3)cnc2N)cc1 [CBK064097],89.6%
2,CCCc1ccc(S(=O)(=O)Nc2c(C(=O)OC)sc3ncccc23)cc1 [CBK050653],87.2%
3,CCCCN1CCN(S(=O)(=O)c2ccc(Br)cc2)CC1 [CBK144055],99.1%
4,CC1CN(C(=S)Nc2ccc(NC(=S)N3CC(C)OC(C)C3)cc2)CC(C)O1 (centres unmarked) [CBK004991],78.9%
5,CCCCC(O)C[N+]1(C)CCC(c2ccccc2)CC1 (centres unmarked) [CBK006696I],101%
6,O=C(N[C@H]1C[C@H]2C(=O)NC[C@@H](CCC(=O)N3CCCCC3)N2C1)c1cccs1 [CBK289010],87.9%
7,O=S(=O)(c1cccs1)n1ccc2c(CN3CCCC3)cccc21 [CBK116195T],89.3%
8,CSc1ccc(-n2ncc(-c3cccc(C(F)(F)F)c3)n2)cc1 [CBK112666],93.6%
9,O=S(=O)(Nc1cccc2cc[nH]c12)c1ccc(F)cc1F [CBK153586],85.3%
10,Cc1cc(-c2cc(=O)n(Cc3ccccc3)nc2C2CC2)on1 [CBK284365],86.2%
11,C[C@H](c1ccccc1)n1c(=O)[nH]c2ncc(-c3cccc(-c4ccccc4)c3)nc21 [CBK064158],96.5%
12,COCc1ccsc1C(=O)Nc1ncn(CC(=O)N2CCCCCC2)n1 [CBK304160],94.9%
13,N#Cc1ccccc1N1CCN(c2cncc(-c3ccc(CO)cc3)n2)CC1 [CBK037383],86.9%
14,CCCCNCC(=O)Nc1sc2c(c1C(=O)O)CCCC2 [CBK287207],83.7%
15,CCN(CC)S(=O)(=O)c1ccc(Nc2nc3ccc(Cl)cc3n3cnnc23)cc1 [CBK268259],87.6%
16,O=C(C1=C(O)C(=O)N(CCN2CCOCC2)C1c1ccccn1)c1cc2ccccc2o1 (centres unmarked) [CBK269576],107%
17,CCC(C)C(NC(=O)C1CCN(S(=O)(=O)c2ccc(OC)c(OC)c2)CC1)C(=O)O (centres unmarked) [CBK297140],90.7%
18,CCOc1ccc(CN(C)C(=O)Cn2nc(C(=O)O)c3ccccc3c2=O)cc1 [CBK297492],83.8%
19,COc1ccccc1-c1nccnc1NCc1ccc(OC(F)(F)F)cc1 [CBK036761],96%
20,Cc1ccc([N+](=O)[O-])cc1/C=C(/C#N)c1nc2ccccc2s1 [CBK267085],95.4%
21,FC(F)(F)c1cccnc1OCCN1CCOCC1 [CBK113456],101%
22,COc1ccccc1N1CCN(C(=O)CC2(CC(=O)O)CCCC2)CC1 [CBK296137],105%

row,Compound,"viability at 28.5 h, 10 µM"
1,CC(=O)N(Cc1ccccc1)C1CCCc2c1[nH]c1ccc(C)cc21 (centres unmarked) [CBK261810],98%
2,O=C1NCC2(C/C=C/CCOc3ccccc31)CCN(C(=O)CCN1CCCC1=O)CC2 [CBK292016],99.3%
3,CC(C)(C)NC(=O)Cn1cncc1-c1cnn(C2CCCCC2)c1 [CBK281701],93.5%
4,COc1ccc(CN(C)C2CCOCC2)cc1Cn1cncn1 [CBK306728],93.9%
5,COc1ccc(N2C(=O)c3ccc(C(=O)Nc4ccccc4C(=O)O)cc3C2=O)cc1O [CBK262833],97.8%
6,CCCCCCN(CCN1CCOCC1)C(=O)Nc1cc(C)on1 [CBK305147],84.7%
7,CSCCC(C(=O)O)N1CNC(=S)NC1 (centres unmarked) [CBK011382],92.3%
8,CC1(OCCN2CCOCC2)SC(NC2CC3CCC2C3)=NC1=O (centres unmarked) [CBK116313],83.8%
9,CCOC(=O)C(C)NC(=O)c1cc2ccc(F)cc2[nH]1 (centres unmarked) [CBK283214],107%
10,Cc1noc(C)c1S(=O)(=O)Nc1ccccc1C(=O)O [CBK042371],89.8%
11,CCCC/C=C/c1cncc(N2CCN(C(=O)c3ccco3)CC2)n1 [CBK037918],91.3%
12,Cc1nccc(-c2cccc(NC3CCN(c4ccc5c(c4)OCCO5)CC3)c2)n1 [CBK286439],97.1%
13,O=C(c1ccc2c(c1)OCCO2)N1CCN(C(=O)c2ccco2)CC1 [CBK144480],101%
14,OCCCNC(=S)NCCc1ccccc1 [CBK264869],99.7%
15,COCCN(CCOC)Cc1c(O)ccc2c3c(c(=O)oc12)CCC3 [CBK263733],75.4%
16,CCOc1ccc(NC(=O)CCc2ncc(C(C)(C)C)o2)c(C)c1 [CBK306021],104%
17,CC(=O)c1sc(NC(=O)c2ccccc2Oc2ccccc2)nc1C [CBK287314],90.9%
18,COc1ccc(S(=O)(=O)NC(C)C(=O)NCc2cccnc2)cc1Cl (centres unmarked) [CBK269384],95.8%
19,Cc1cc(N2CCN(C(=O)c3ccsc3)CC2)nc(C(C)C)n1 [CBK304053],102%
20,Cc1ccc(S(=O)(=O)NC(=O)NCCCCNC(=O)NS(=O)(=O)c2ccc(C)cc2)cc1 [CBK296078],102%
21,O=C(NCCCN1CCOCC1)c1ccccc1Br [CBK262602C],106%
22,CN(C)CCNc1cc(-c2ccc3ccccc3c2)nc2ccccc12 [CBK278186B],67.9%

row,Compound,"viability at 28.5 h, 10 µM"
1,COc1ccc(S(=O)(=O)N(CC(=O)N2CCc3ccccc3C2)C2CCCCC2)cc1Cl [CBK268525],97.9%
2,COCC(O)CN(C)c1nc(-c2ccncc2)nc2ccccc12 (centres unmarked) [CBK305170],78.7%
3,CC(=O)C(C)n1c(=O)c2c(nc3oc(C(C)(C)C)cn32)n(C)c1=O (centres unmarked) [CBK306027],91.1%
4,NS(=O)(=O)c1ccc(NC(=S)Nc2nn(Cc3ccc(Cl)cc3Cl)cc2Cl)cc1 [CBK267020],90.6%
5,CC(=O)N[C@H]1CC[C@]2(C)CCC([C@H](C)C(=O)NCCN3CCOCC3)[C@H](O)[C@H]2[C@@H]1C (some centres unmarked) [CBK289434],114%
6,CCC1CCCCN1S(=O)(=O)c1ccc(NC(=O)Cn2c(=O)oc3ccccc32)cc1 (centres unmarked) [CBK268069],89.2%
7,Cc1cc(O)nc(-n2nc(C)cc2NC(=O)c2ccccc2)n1 [CBK287653],101%
8,Cc1cc(C)nc(Nc2n[nH]c(-c3cccc4ccccc34)n2)n1 [CBK266451],99.3%
9,Cc1ccc(C(=O)Nc2ccc(S(=O)(=O)N3CCCC3)cc2)cc1S(=O)(=O)Nc1ccccc1 [CBK268054],47.4%
10,CC(C)(C)c1cc(C[C@H]2CNCC[C@H]2CC(=O)Nc2nccs2)no1 [CBK288798],81%
11,COc1cccc(-c2cncc(C3CCCN(Cc4ccc5[nH]ccc5c4)C3)n2)c1 (centres unmarked) [CBK286151],84.7%
12,Cn1nnnc1SCCNCc1ccc2c(c1)n(C)c(=O)n2C [CBK270080C],99.8%
13,O=C(c1cncnc1)N1CCCC2(CCN(C(=O)c3cc(F)c(F)cc3F)C2)C1 (centres unmarked) [CBK131564],106%
14,COc1cc(OC)nc(C(NC(=O)C2CCN(CCc3c[nH]c4ccccc34)CC2)c2ccccc2C)n1 (centres unmarked) [CBK148101],104%
15,COc1ccc(CN2CCNC(=O)C2CC(=O)O)cc1OC (centres unmarked) [CBK269991],102%
16,O=C(c1nccs1)C1CCN(C(=O)c2cc(F)cc(F)c2)CC1 [CBK284200],96.9%
17,CCOC(=O)c1sc2cccc(F)c2c1COC(=O)c1ccc(CNC(N)=O)cc1 [CBK297873],101%
18,CSc1nc(Cl)c(-c2ccccc2)c(N(C)C)n1 [CBK023169],96.9%
19,O=C1CC(NCc2ccc3c(c2)OCO3)C(=O)N1c1ccc(OC(F)(F)Cl)cc1 (centres unmarked) [CBK074357],87.7%
20,CCOC(=O)c1ccc(-c2ccc(C(=O)Nc3ccc(-c4nc5ccccc5o4)c(O)c3)o2)cc1 [CBK263428],99%
21,OCCN(CCO)c1cncc(-c2cccc3ccccc23)n1 [CBK065812],84.5%
22,CC(C)[C@@H](CO)Nc1cncc(-c2cccc(Cl)c2)n1 [CBK037261],102%

row,Compound,"viability at 28.5 h, 10 µM"
1,NC(=O)C1(N2CCCCC2)CCN(C(=S)Nc2ccc(F)c(Cl)c2)CC1 [CBK267165],97.4%
2,Cc1cc(C)c2nc(-c3ccccn3)cc(C(=O)Nc3ccc(S(=O)(=O)Nc4cc(C)on4)cc3)c2c1 [CBK267779],105%
3,CSCCC(NC(=O)c1ccc(C#CC(C)(C)O)cc1)C(=O)O (centres unmarked) [CBK276698],93.9%
4,O=C(O)CSC1c2ccccc2Oc2ccc(F)cc21 (centres unmarked) [CBK266462],98%
5,CN1C[C@@H](NC(=O)c2ccc3c(c2)OCO3)C[C@H]1c1nc(-c2ccc(Cl)cc2)no1 [CBK288854],90.6%
6,O=C(Cn1c(C2CCCNC2)cc2cccnc21)N1CCCC1 (centres unmarked) [CBK285060],94.4%
7,OCC1CCC(O)C(CO)N1 (centres unmarked) [CBK022827C],86.5%
8,Cc1ccc(C)c(-n2nnnc2SC(C)C(=O)N2CCCC2)c1 (centres unmarked) [CBK295204],79.9%
9,Cc1nn(C)c2nc(NCc3ccc(C(=O)N4CCCC4)cc3)sc12 [CBK307190],88.6%
10,COc1ccc(CCOc2nccnc2-c2ccsc2)cc1 [CBK106775],72%
11,O=C(CNS(=O)(=O)c1cc(F)c(Br)cc1F)N1CCOCC1 [CBK042216],107%
12,COc1cccc(NC(=O)c2ccncc2Cl)c1 [CBK174695],96.3%
13,O=c1cc(O)cc(CCc2ccccc2)o1 [CBK012714],117%
14,CN(C(=O)Cn1c(=O)n(C)c2ncccc21)C1CCCCC1 [CBK283791],81.5%
15,CCc1cc(CNC(=O)C(c2ccc(F)cc2)N(C)C)on1 (centres unmarked) [CBK281648],88.4%
16,Cc1ncsc1CCOc1nccnc1N1CCCC1 [CBK115752],86.5%
17,COC(=O)/N=C1/Nc2ccccc2CN1CC(N)=O [CBK007160],91.9%
18,O=C(NCCO)Nc1ccc2nccnc2c1 [CBK027577],71.5%
19,CSc1ncc(Cl)c(C(=O)Nc2nnc(C)s2)n1 [CBK268920],90.1%
20,CCC(CC)C(=O)N1C[C@H]2CCc3cn(CCNC(C)=O)nc3[C@H]2C1 [CBK282183],104%

# Same assay, conditions: human, hela cells, % viability, bulk resorufin, single well
row,Compound,"viability at 28.5 h, 10 µM"
1,NC(=O)C(=O)c1cn(Cc2ccccc2)c2ccccc12 [CBK288473],96.2%
2,CCN(CC)CCN(C)Cc1ccc2ccc3cccc4ccc1c2c34 [CBK261859],103%
3,CCc1ccc(C(=O)Nc2cccc(-c3ccc4c(c3)COC3(CCNCC3)O4)c2)cc1 [CBK093680],67.5%
